Measured values published in patent US11078170B2 (Assembly Biosciences, Inc., priority 2017, dated 2021).

Test system: HBV viral production from HepAD38 cells
Experiment: Activity of test compounds on viral production from HepAD38 cells (viral load by qPCR of HBV core sequence in supernatant)
Format: cell-based
Conditions: Hepatitis B virus, 120 h, 5 days incubation, HBV DNA in supernatant by qPCR, top concentration 10 μM, read-out: Viral Load EC50 Activity range
Method in brief: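 HepAD38 cells, 50,000/well in tetracycline-free 2% FBS medium, treated 5 days at 37° C. with compound from 10 μM top concentration. HBV DNA in supernatant quantified by TaqMan qPCR of core sequence against DNA standards, relative to DMSO wells; CellTiter-Glo viability read in parallel. EC50/CC50 from four-parameter logistic fit.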

| Compound | EC50 [nM] |
| --- | --- |
| [2H]C1[C@]([2H])(c2ccc(-c3cn(C([2H])([2H])[2H])cn3)s2)NS(=O)(=O)N(C)[C@]1([2H])C(=O)Nc1ccc(F)c(Cl)c1 (stereo in doubt) [HBV-CSU-376-ISO-I, Cis-N-(3-Chloro-4-fluorophenyl)-2-methyl-5-(5-(1-(methyl-d3)-1H-imidazol-4-yl)thiophen-2-yl)-1,2,6-thiadiazinane-3,4,5-d3-3-carboxamide 1,1-dioxide] | < 1000 |
| [2H]C1[C@]([2H])(C(=O)Nc2ccc(F)c(Cl)c2)N(C)S(=O)(=O)N[C@]1([2H])c1ccc(-c2cn(C([2H])([2H])[2H])cn2)s1 (stereo in doubt) [HBV-CSU-376-ISO-II, Cis-N-(3-Chloro-4-fluorophenyl)-2-methyl-5-(5-(1-(methyl-d3)-1H-imidazol-4-yl)thiophen-2-yl)-1,2,6-thiadiazinane-3,4,5-d3-3-carboxamide 1,1-dioxide] | 1000 to 5000 |
| [2H]C1[C@]([2H])(c2ccc(-c3cn(C([2H])([2H])[2H])cn3)s2)NS(=O)(=O)N(C([2H])([2H])[2H])[C@]1([2H])C(=O)Nc1ccc(F)c(Cl)c1 (stereo in doubt) [HBV-CSU-378-ISO-I, Cis-N-(3-chloro-4-fluorophenyl)-2-(methyl-d3)-5-(5-(1-(methyl-d3)-1H-imidazol-4-yl)thiophen-2-yl)-1,2,6-thiadiazinane-3,4,5-d3-3-carboxamide 1,1-dioxide] | < 1000 |
| [2H]C1[C@]([2H])(C(=O)Nc2ccc(F)c(Cl)c2)N(C([2H])([2H])[2H])S(=O)(=O)N[C@]1([2H])c1ccc(-c2cn(C([2H])([2H])[2H])cn2)s1 (stereo in doubt) [HBV-CSU-378-ISO-II, Cis-N-(3-chloro-4-fluorophenyl)-2-(methyl-d3)-5-(5-(1-(methyl-d3)-1H-imidazol-4-yl)thiophen-2-yl)-1,2,6-thiadiazinane-3,4,5-d3-3-carboxamide 1,1-dioxide] | 1000 to 5000 |
| [2H]C1[C@]([2H])(c2ccc(-c3cnn(C([2H])([2H])[2H])c3)s2)NS(=O)(=O)N(C([2H])([2H])[2H])[C@]1([2H])C(=O)Nc1ccc(F)c(Cl)c1 (stereo in doubt) [HBV-CSU-379-ISO-I, Cis-N-(3-Chloro-4-fluorophenyl)-2-(methyl-d3)-5-(5-(1-(methyl-d3)-1H-pyrazol-4-yl)thiophen-2-yl)-1,2,6-thiadiazinane-3,4,5-d3-3-carboxamide 1,1-dioxide] | < 1000 |
| [2H]C1[C@]([2H])(C(=O)Nc2ccc(F)c(Cl)c2)N(C([2H])([2H])[2H])S(=O)(=O)N[C@]1([2H])c1ccc(-c2cnn(C([2H])([2H])[2H])c2)s1 (stereo in doubt) [HBV-CSU-379-ISO-II, Cis-N-(3-Chloro-4-fluorophenyl)-2-(methyl-d3)-5-(5-(1-(methyl-d3)-1H-pyrazol-4-yl)thiophen-2-yl)-1,2,6-thiadiazinane-3,4,5-d3-3-carboxamide 1,1-dioxide] | < 1000 |
| CN1C(C(=O)Nc2ccccc2)CC(c2cccs2)NS1(=O)=O (stereo not drawn) [HBV-CSU-006, Cis-2-Methyl-N-phenyl-5-(thiophen-2-yl)-1,2,6-thiadiazinane-3-carboxamide 1,1-dioxide] | < 1000 |
| CN1[C@H](C(=O)Nc2cccc(Cl)c2)C[C@H](c2cccs2)NS1(=O)=O [HBV-CSU-010-ISO-I, Cis-N-(3-chlorophenyl)-2-methyl-5-(thiophen-2-yl)-1,2,6-thiadiazinane-3-carboxamide 1,1-dioxide] | < 1000 |
| CN1C(C(=O)Nc2ccc(F)c(F)c2)CC(c2cccs2)NS1(=O)=O (stereo not drawn) [HBV-CSU-011, Cis-N-(3,4-difluorophenyl)-2-methyl-5-(thiophen-2-yl)-1,2,6-thiadiazinane-3-carboxamide 1,1-dioxide] | < 1000 |
| CN1C(C(=O)Nc2cccc(C(F)(F)F)c2)CC(c2cccs2)NS1(=O)=O (stereo not drawn) [HBV-CSU-012, Cis-2-Methyl-5-(thiophen-2-yl)-N-(3-(trifluoromethyl)phenyl)-1,2,6-thiadiazinane-3-carboxamide 1,1-dioxide] | 1000 to 5000 |
| CN1C(C(=O)Nc2ccc(Cl)cc2)CC(c2cccs2)NS1(=O)=O (stereo not drawn) [HBV-CSU-014, Cis-N-(4-chlorophenyl)-2-methyl-5-(thiophen-2-yl)-1,2,6-thiadiazinane-3-carboxamide 1,1-dioxide] | 1000 to 5000 |
| CN(C(=O)C1CC(c2cccs2)NS(=O)(=O)N1C)c1ccc(F)c(Cl)c1 (stereo not drawn) [HBV-CSU-015, Cis-N-(3-Chloro-4-fluorophenyl)-N-2-dimethyl-5-(thiophen-2-yl)-1,2,6-thiadiazinane-3-carboxamide 1,1-dioxide] | 1000 to 5000 |
| CN1[C@H](C(=O)Nc2ccc(F)c(Br)c2)C[C@H](c2cccs2)NS1(=O)=O [HBV-CSU-016-ISO-I, Cis-N-(3-Bromo-4-fluorophenyl)-2-methyl-5-(thiophen-2-yl)-1,2,6-thiadiazinane-3-carboxamide 1,1-dioxide] | < 1000 |
| CN1C(C(=O)Nc2cccc(Br)c2)CC(c2cccs2)NS1(=O)=O (stereo not drawn) [HBV-CSU-017, Cis-N-(3-Bromophenyl)-2-methyl-5-(thiophen-2-yl)-1,2,6-thiadiazinane-3-carboxamide 1,1-dioxide] | < 1000 |
| CN1[C@H](C(=O)Nc2cccc(Br)c2)C[C@H](c2cccs2)NS1(=O)=O [HBV-CSU-017-ISO-I, Cis-N-(3-Bromophenyl)-2-methyl-5-(thiophen-2-yl)-1,2,6-thiadiazinane-3-carboxamide 1,1-dioxide] | < 1000 |
| CN1C(C(=O)Nc2ccc(Cl)c(F)c2)CC(c2cccs2)NS1(=O)=O (stereo not drawn) [HBV-CSU-018, Cis-N-(4-Chloro-3-fluorophenyl)-2-methyl-5-(thiophen-2-yl)-1,2,6-thiadiazinane-3-carboxamide 1,1-dioxide] | 1000 to 5000 |
| CN1C(C(=O)Nc2ccc(C#N)cc2)CC(c2cccs2)NS1(=O)=O (stereo not drawn) [HBV-CSU-019, Cis-N-(4-cyanophenyl)-2-methyl-5-(thiophen-2-yl)-1,2,6-thiadiazinane-3-carboxamide 1,1-dioxide] | > 5000 |
| CN1[C@H](C(=O)Nc2cccc(C#N)c2)C[C@H](c2cccs2)NS1(=O)=O [HBV-CSU-020-ISO-I, Cis-N-(3-cyanophenyl)-2-methyl-5-(thiophen-2-yl)-1,2,6-thiadiazinane-3-carboxamide 1,1-dioxide] | < 1000 |
| CN1C(C(=O)Nc2ccc(F)c(Cl)c2)CC(c2cccs2)N(C)S1(=O)=O (stereo not drawn) [HBV-CSU-023, Cis-N-(3-Chloro-4-fluorophenyl)-2,6-dimethyl-5-(thiophen-2-yl)-1,2,6-thiadiazinane-3-carboxamide 1,1-dioxide] | 1000 to 5000 |
| COCCN1[C@@H](C(=O)Nc2ccc(F)c(Cl)c2)C[C@@H](c2cccs2)NS1(=O)=O [HBV-CSU-025-ISO-I, Cis-N-(3-chloro-4-fluorophenyl)-2-(2-methoxyethyl)-5-(thiophen-2-yl)-1,2,6-thiadiazinane-3-carboxamide 1,1-dioxide] | > 5000 |
| COCCN1[C@H](C(=O)Nc2ccc(F)c(Cl)c2)C[C@H](c2cccs2)NS1(=O)=O [HBV-CSU-025-ISO-II, Cis-N-(3-chloro-4-fluorophenyl)-2-(2-methoxyethyl)-5-(thiophen-2-yl)-1,2,6-thiadiazinane-3-carboxamide 1,1-dioxide] | < 1000 |
| CN1[C@@H](C(=O)Nc2ccc(F)c(Cl)c2)C[C@@H](c2nccs2)NS1(=O)=O [HBV-CSU-027-ISO-I, Cis-N-(3-chloro-4-fluorophenyl)-2-methyl-5-(thiazol-2-yl)-1,2,6-thiadiazinane-3-carboxamide 1,1-dioxide] | > 5000 |
| CN1[C@H](C(=O)Nc2ccc(F)c(Cl)c2)C[C@H](c2ccc(F)s2)NS1(=O)=O [HBV-CSU-029-ISO-I, Cis-N-(3-chloro-4-fluorophenyl)-5-(5-fluorothiophen-2-yl)-2-methyl-1,2,6-thiadiazinane-3-carboxamide 1,1-dioxide] | < 1000 |
| CN1[C@H](C(=O)Nc2ccc(F)c(Cl)c2)C[C@H](c2ccccn2)NS1(=O)=O [HBV-CSU-031-ISO-I, Cis-N-(3-Chloro-4-fluorophenyl)-2-methyl-5-(pyridin-2-yl)-1,2,6-thiadiazinane-3-carboxamide 1,1-dioxide] | < 1000 |
| CN1[C@@H](C(=O)Nc2ccc(F)c(Cl)c2)C[C@@H](c2ccccn2)NS1(=O)=O [HBV-CSU-031-ISO-II, Cis-N-(3-Chloro-4-fluorophenyl)-2-methyl-5-(pyridin-2-yl)-1,2,6-thiadiazinane-3-carboxamide 1,1-dioxide] | > 5000 |
| CN1C(C(=O)Nc2ccc(F)c(Cl)c2)CC(c2ccc(F)cn2)NS1(=O)=O (stereo not drawn) [HBV-CSU-032, Cis-N-(3-Chloro-4-fluorophenyl)-5-(5-fluoropyridin-2-yl)-2-methyl-1,2,6-thiadiazinane-3-carboxamide 1,1-dioxide] | < 1000 |
| CN1[C@H](C(=O)Nc2ccc(F)c(Cl)c2)C[C@H](c2ccc(F)cn2)NS1(=O)=O [HBV-CSU-032-ISO-I, Cis-N-(3-Chloro-4-fluorophenyl)-5-(5-fluoropyridin-2-yl)-2-methyl-1,2,6-thiadiazinane-3-carboxamide 1,1-dioxide] | < 1000 |
| CN1[C@@H](C(=O)Nc2ccc(F)c(Cl)c2)C[C@@H](c2ccc(F)cn2)NS1(=O)=O [HBV-CSU-032-ISO-II, Cis-N-(3-Chloro-4-fluorophenyl)-5-(5-fluoropyridin-2-yl)-2-methyl-1,2,6-thiadiazinane-3-carboxamide 1,1-dioxide] | > 5000 |
| CN1C(C(=O)Nc2ccc(F)c(Cl)c2)CC(c2cccnc2)NS1(=O)=O (stereo not drawn) [HBV-CSU-033, Cis-N-(3-Chloro-4-fluorophenyl)-2-methyl-5-(pyridin-3-yl)-1,2,6-thiadiazinane-3-carboxamide 1,1-dioxide] | < 1000 |
| C=CCN1C(C(=O)Nc2ccc(F)c(Cl)c2)CC(c2cccs2)NS1(=O)=O (stereo not drawn) [HBV-CSU-040, Cis-2-Allyl-N-(3-chloro-4-fluorophenyl)-5-(thiophen-2-yl)-1,2,6-thiadiazinane-3-carboxamide 1,1-dioxide] | < 1000 |
